Here are results for 15 molecules from patent publication US9976142B2, “Targeting molecule and a use thereof” (Nitto Denko Corporation, priority 2014, dated 2018).

In this assay the test system is rat hepatic stellate cells (HSCs). Put plainly: siRNA introduction into rat hepatic stellate cells with targeting molecule/LipoTrust/siRNA lipoplex; HSP47 expression by quantitative PCR. Format: cell-based. Conditions: siRNA 11.5 μg/ml; for HSP47 expression rate (%): FIG. 2, HSP47 relative to GAPDH, untreated cell = 100; for extent of the suppression of the expression of HSP47 gene, compared with RBP Loop 1: FIG. 3; for extent of the suppression of the expression of HSP47 gene, compared with RBP Loop 1 / expression rate of HSP47 gene: peptide 7.7 μM; for suppression of HSP47 expression: peptide stock solutions 1.1-10 mM; for expression rate of HSP47 gene: FIG. 5. As for the experimental part: LipoTrust™ SR was dissolved in nuclease-free water (Ambion, Cat. No. AM9937) at a concentration of 1 mM of the cationic lipid. 10 μl of this liposome solution was placed in an Eppendorf tube, to which added 1 μl of the stock solution of each peptide above dissolved in DMSO at predetermined concentration (1.1 mM, 1.25 mM, 2.5 mM, 3.4 mM, 5 mM or 10 mM for experiments whose results are shown in FIG. 1; 90 mM for experiments whose results are shown in FIG. 2) or the stock solution of vitamin A above, and the mixture was vortexed for 15 seconds. To this mixture, 1.5 μl of the above siRNA stock solution was added and mixed, then 17.5 μl of 5% glucose aq. solution (OTSUKA GLUCOSE INJECTION 5%, Otsuka Pharmaceutical Co., Ltd.) was added and mixed. Thus obtained solution of liposome-peptide (or vitamin A)-siRNA complex (lipoplex) was left still under shade for 15 min at room temperature. Also, a mixture of the peptide and siRNA without LipoTrust™ SR was prepared as a control.
Two days before the siRNA introduction, hepatic stellate cells (HSCs) prepared from a rat liver according to the method of Schaefer et al. (Schaefer et al., Hepatology. 1987 July-August; 7(4):680-7) were inoculated uniformly onto a 6-well plate at a density of 0.2×10^5/well and cultured in a Dulbecco's modified Eagle's medium (D-MEM, Sigma Aldrich, Cat. No. D6546, hereinbelow referred to as “culture medium”) containing 10% fetal bovine serum (Thermo HyClone, Cat. No. SH30070.03), 2% L-glutamine (Sigma Aldrich, Cat. No. G7513) and 1% penicillin-streptomycin (Sigma Aldrich, Cat. No. G1146).
The culture medium was removed, 900 μl of fresh culture medium was added to each well, and then this was incubated for at least 30 minutes at 37° C. To 30 μl of each lipoplex solution obtained in Example 1, 100 μl of 5% glucose solution was added to make a mixed solution of 130 μl, and 100 μl of said mixture was added to corresponding well. The final concentration of the siRNA at this time was 11.5 μg/ml. After incubating at 37° C., in 5% CO2 for 30 minutes, the medium comprising the lipoplex solution was removed and substituted with the culture medium, and this was cultured under normal condition for 24-36 hours.
Total RNA extraction of each sample was carried out using RNeasy Mini kit (Qiagen). Firstly, the culture medium was removed, and 350 μl/well each of RLT/2ME solution which was prepared in advance by mixing RLT solution attached to RNeasy Mini kit with 1% (v/v) 2-mercaptoethanol (2ME, Wako) was dispensed into each well. Total volume of the cell lysate was homogenized with QIAshredder (Qiagen), centrifuged at 4° C. and 12000 rpm for 2 min, and then total RNA was extracted according to the manufacturer's instruction. The obtained RNA was quantified using NanoDrop 2000 (Thermo Fisher Scientific), and cDNA was synthesized by RT-PCR. 20 μl total volume/tube of the reaction solution consisting of 4 μl of the reverse transcriptase mix (Super Script VILO Master Mix, Invitrogen, 11755-250) and 16 μl of total RNA of each sample (containing 100-500 ng or more RNA) was reacted at 25° C. for 5 min, at 42° C. for 60 min, then at 85° C. for 5 min, respectively, and subsequently stored at 4° C.
The suppression of HSP47 expression was analyzed by quantitative PCR. As a standard template, the untreated cell sample was used in 10-fold dilution series (the stock solution, 10- and 100-fold dilutions). To each well of MicroAmp (Optical 96-well Reaction Plate, Applied Biosystems, Cat. No. 4306737) added a 48 μl premix consisting of 22 μl of sterile water, 25 μl of Power SYBR® Green (Applied Biosystems, Cat. No. 4367669) and 1 μl of primer mix. The primer mix comprises 50 μM each of the primer set against HSP47 or GAPDH, an internal standard gene, as shown below:
To the corresponding well, 2 μl of the template cDNA obtained from each sample was added to make a total volume of 50 μl. […]

[1] abbreviates: each peptide at final concentration 69.2 μM, smaller value = greater suppression.

Square brackets hold non-standard residues; d marks the D form. Ends that are not written are not given here.

Regarding `CC1=C(/C=C/C(C)=C/C=C/C(C)=C/CO)C(C)(C)CCC1` [VA, all-trans-retinol, reference compound], the “HSP47 expression rate (%)” value (VA at final concentration 7.7 μM) came out at 46.8%.

In the case of KKDPEGLFLQDNI (Peptide No. 10-3), the “HSP47 expression rate (%)” value under setting [1] is given as 31.2%.

“AKDDPEGLFLQKNI (Variant peptide D3K12) [Mutant peptide 3]”: the “extent of the suppression of the expression of HSP47 gene, compared with RBP Loop 1” value (shortened to “extent … compared with RBP Loop 1”) is listed as “lower”.

On to “AKEDPKGLFLQDNI (Variant peptide E3K6) [Mutant peptide 1]”, for which the “extent … compared with RBP Loop 1” value is “lower”.

Consider AKKDPEGLFLQDNI (Synthetic RBP loop 1), for which the “expression rate of HSP47 gene” value is given as “significantly decreased”. In addition, where the note is “FIG. 1”, the “suppression of HSP47 expression” value is “concentration-dependent suppression of HSP47 expression” and the “suppression rate by the complex, compared with vitamin A” value is recorded as “comparable to that by vitamin A”. Also, under setting [1], the “HSP47 expression rate (%)” value was 49.0%.

As for “AKDKPEGLFLQDNI (Variant peptide D3K4) [Mutant peptide 2]”, the “extent … compared with RBP Loop 1” value is “lower”.

For AKGRVRLLNNWDVCA (Synthetic RBP loop 2), the “suppression of HSP47 expression” value (FIG. 1) is “concentration-dependent suppression of HSP47 expression”.

On to KKDPEGLFLQD (Peptide No. 10-5), for which, under setting [1], the “HSP47 expression rate (%)” value came to 40.4%.

For the molecule KDPEGLFLQD (Peptide No. 10), under setting [1], the “HSP47 expression rate (%)” value came out at 57.2%.

Turning to KDPEGLFLQDNI (Peptide No. 10-4), the “HSP47 expression rate (%)” value under setting [1] amounted to 42.9%.

For the molecule “d-INDQLFLGEPDKKA-amide ([dI][dN][dD][dQ][dL][dF][dL]G[dE][dP][dD][dK][dK][dA]-NH2; N-terminus assumed; SMILES CC[C@@H](C)[C@@H](N)C(=O)N[C@H](CC(N)=O)C(=O)N[C@H](CC(=O)O)C(=O)N[C@H](CCC(N)=O)C(=O)N[C@H](CC(C)C)C(=O)N[C@H](Cc1ccccc1)C(=O)N[C@H](CC(C)C)C(=O)NCC(=O)N[C@H](CCC(=O)O)C(=O)N1CCC[C@@H]1C(=O)N[C@H](CC(=O)O)C(=O)N[C@H](CCCCN)C(=O)N[C@H](CCCCN)C(=O)N[C@H](C)C(N)=O) [retro-inverso peptide]”, the “targetability (suppression of HSP47)” value (FIG. 4, peptide 23.1 μM) is recorded as “almost the same targetability as that of RBP Loop 1”.

Regarding KDPEGLFLQDN (Peptide No. 10-6), the “HSP47 expression rate (%)” value under setting [1] is 44.3%.

Regarding AKKDPEGLFLQD (Peptide No. 10-2), the “HSP47 expression rate (%)” value under setting [1] came out at 48.5%.

Regarding “AKFQKLEPGDDLNI (Scramble peptide) [scrambled peptide, negative control, reference compound]”, the “expression rate of HSP47 gene” value is given as “almost the same as the result in the group using no targeting molecule”.

For AKKDPEGLFLQDN (Peptide No. 10-1), under setting [1], the “HSP47 expression rate (%)” value stood at 39.3%.
